#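 The compound was tested at five concentrations on cells cultured in 96-well plates, with a 48-hour exposure period. The concentration for full growth arrest is given as TGI.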
# How the values were obtained:
# Test in all cases: inhibition of tumour cell growth, NCI panel, 48 h
# [1] = test system: MCF7 breast
# [2] = test system: KM12 colon
# [3] = test system: COLO 205 colon
# [4] = test system: DU-145 prostate
# [5] = test system: OVCAR-8 ovarian
# [6] = test system: UACC-62 melanoma
# [7] = test system: NCI/ADR-RES ovarian
# [8] = test system: EKVX NSCLC
# [9] = test system: HS 578T breast
# [10] = test system: SF-539 CNS
# [11] = test system: IGROV1 ovarian
# [12] = test system: NCI-H226 lung
# [13] = test system: ACHN renal
# [14] = test system: OVCAR-5 ovarian
# [15] = test system: SK-MEL-28 melanoma
# [16] = test system: MDA-MB-435
# [17] = test system: HCT-15 colon
# [18] = test system: CAKI-1 renal
# [19] = test system: CCRF-CEM leukemia
# [20] = test system: LOX IMVI melanoma
Compound,TGI [1],TGI [2],TGI [3],TGI [4],TGI [5],TGI [6],TGI [7],TGI [8],TGI [9],TGI [10],TGI [11],TGI [12],TGI [13],TGI [14],TGI [15],TGI [16],TGI [17],TGI [18],TGI [19],TGI [20]
Cc1ccc(S(=O)(=O)N2CCSCCSCCSCCN(S(=O)(=O)c3ccc(C)cc3)CC2)cc1,> 100 µM,> 100 µM,> 100 µM,> 100 µM,> 100 µM,> 100 µM,> 100 µM,> 100 µM,> 100 µM,> 100 µM,> 100 µM,> 100 µM,> 100 µM,> 100 µM,> 100 µM,> 100 µM,–,–,–,–
CSc1nc(=O)cnn1C,> 100 µM,> 100 µM,> 100 µM,> 100 µM,> 100 µM,> 100 µM,> 100 µM,> 100 µM,> 100 µM,–,> 100 µM,> 100 µM,> 100 µM,> 100 µM,> 100 µM,> 100 µM,> 100 µM,> 100 µM,> 100 µM,–
CC(=O)Nc1cccc(N2C(=O)/C(=C\c3cccc(Oc4ccccc4)c3)SC2c2ccccc2)c1 (stereo unspecified),> 100 µM,> 100 µM,> 100 µM,> 100 µM,> 100 µM,> 100 µM,> 100 µM,> 100 µM,> 100 µM,> 100 µM,–,> 100 µM,> 100 µM,> 100 µM,> 100 µM,> 100 µM,> 100 µM,> 100 µM,51.6 µM,> 100 µM
COC(=O)/C=C/[C@@H]1[C@H](C)N1S(=O)(=O)c1ccc(C)cc1 (stereo partly specified),> 100 µM,–,> 100 µM,> 100 µM,> 100 µM,> 100 µM,> 100 µM,> 100 µM,> 100 µM,> 100 µM,> 100 µM,> 100 µM,> 100 µM,> 100 µM,> 100 µM,> 100 µM,> 100 µM,> 100 µM,> 100 µM,> 100 µM
CC(Oc1ccccc1Cl)C(=O)NN1C(=O)CC(=O)N(c2ccc(Cl)cc2)C1=S (stereo unspecified),> 100 µM,> 100 µM,> 100 µM,> 100 µM,> 100 µM,> 100 µM,> 100 µM,> 100 µM,> 100 µM,> 100 µM,> 100 µM,> 100 µM,> 100 µM,> 100 µM,> 100 µM,> 100 µM,> 100 µM,> 100 µM,–,> 100 µM
COC(=O)c1ccc2c(c1)CC1(C2)Cc2ccccc2C1=O (stereo unspecified),52.5 µM,–,42.4 µM,> 100 µM,> 100 µM,–,68.6 µM,88.1 µM,> 100 µM,> 100 µM,> 100 µM,52.7 µM,> 100 µM,> 100 µM,38.7 µM,58.5 µM,> 100 µM,> 100 µM,56.5 µM,57.4 µM
O=C1NC(N/N=C\c2ccccc2)=N/C1=C/c1ccccc1,> 100 µM,> 100 µM,> 100 µM,78.8 µM,> 100 µM,–,85.9 µM,74.5 µM,80.7 µM,43.5 µM,> 100 µM,50.2 µM,34.5 µM,44.5 µM,> 100 µM,> 100 µM,> 100 µM,87 µM,> 100 µM,> 100 µM
CCCCCCCCCCCCOCC1(COCCCCCCCCCCCC)COC(c2ccc(N)cc2)OC1,> 100 µM,> 100 µM,–,> 100 µM,> 100 µM,> 100 µM,> 100 µM,> 100 µM,> 100 µM,> 100 µM,> 100 µM,> 100 µM,> 100 µM,> 100 µM,> 100 µM,> 100 µM,> 100 µM,> 100 µM,–,> 100 µM
CCCCCCCCCCCCCCCCNC(=O)/C(=C\c1ccc(Cl)c(Cl)c1)NC(=O)c1ccccc1,59.1 µM,> 100 µM,> 100 µM,70.7 µM,> 100 µM,–,> 100 µM,> 100 µM,> 100 µM,30.8 µM,41.4 µM,56.8 µM,> 100 µM,> 100 µM,> 100 µM,> 100 µM,> 100 µM,> 100 µM,–,54.2 µM
O=C(Nc1ccccc1)Oc1ccc(C(=S)Nc2ccc(Br)cc2)cc1,60.9 µM,32.4 µM,36.6 µM,81.8 µM,29.2 µM,30 µM,39.7 µM,31.1 µM,> 100 µM,53 µM,28 µM,–,97.9 µM,46.4 µM,46.4 µM,39.7 µM,34.5 µM,41 µM,28.5 µM,24.8 µM
COc1ccccc1-c1c(C#N)c(N)[nH]c(=S)c1C#N,> 100 µM,> 100 µM,> 100 µM,> 100 µM,> 100 µM,> 100 µM,> 100 µM,> 100 µM,> 100 µM,> 100 µM,> 100 µM,> 100 µM,> 100 µM,> 100 µM,> 100 µM,> 100 µM,> 100 µM,> 100 µM,–,> 100 µM
Cc1ccc(S(=O)(=O)N2CCNCCN(S(=O)(=O)c3ccc(C)cc3)CCNCC2)cc1,53.8 µM,42.1 µM,31.1 µM,71.8 µM,36.9 µM,34.5 µM,> 100 µM,> 100 µM,35.7 µM,34.7 µM,42.9 µM,44 µM,89.1 µM,> 100 µM,37.6 µM,36.4 µM,> 100 µM,73.5 µM,–,25.6 µM

# From PubChem BioAssay (NCI)
